Experimental data published in patent publication US12479817B2, “Substituted 3-(1-oxoisoindolin-2-yl)piperidine-2,6-dione derivatives and uses thereof” (Novartis AG, priority 2019, dated 2025).

Legend:
[1] = target: T1, IKZF1 (Homo sapiens, UniProt Q13422+Q96SW2); test: Prolabel quantification of IKZF1 protein levels in 293GT cells; assay type: cell-based; conditions: Pro-label assay in 293GT cells; for AC50: read-out: IKZF1 Degradation AC50; for IKZF1 Degradation (%): % degradation is at 10 μM
T1 construct: expressed in transfected cells
T1 sequence (Q13422 whole entry): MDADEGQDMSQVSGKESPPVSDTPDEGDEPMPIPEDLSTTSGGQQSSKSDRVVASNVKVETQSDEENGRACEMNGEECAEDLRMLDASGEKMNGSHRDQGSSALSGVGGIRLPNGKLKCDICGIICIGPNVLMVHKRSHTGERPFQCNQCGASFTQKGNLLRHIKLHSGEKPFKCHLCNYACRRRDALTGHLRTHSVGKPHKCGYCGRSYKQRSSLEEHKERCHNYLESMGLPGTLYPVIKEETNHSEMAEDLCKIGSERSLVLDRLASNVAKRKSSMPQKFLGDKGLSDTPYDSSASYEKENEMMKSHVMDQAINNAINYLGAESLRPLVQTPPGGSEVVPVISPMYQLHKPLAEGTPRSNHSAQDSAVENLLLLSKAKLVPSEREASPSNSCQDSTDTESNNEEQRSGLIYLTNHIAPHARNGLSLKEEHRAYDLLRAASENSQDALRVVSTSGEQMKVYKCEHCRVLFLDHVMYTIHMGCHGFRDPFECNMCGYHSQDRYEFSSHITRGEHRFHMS
T1 sequence (Q96SW2 whole entry): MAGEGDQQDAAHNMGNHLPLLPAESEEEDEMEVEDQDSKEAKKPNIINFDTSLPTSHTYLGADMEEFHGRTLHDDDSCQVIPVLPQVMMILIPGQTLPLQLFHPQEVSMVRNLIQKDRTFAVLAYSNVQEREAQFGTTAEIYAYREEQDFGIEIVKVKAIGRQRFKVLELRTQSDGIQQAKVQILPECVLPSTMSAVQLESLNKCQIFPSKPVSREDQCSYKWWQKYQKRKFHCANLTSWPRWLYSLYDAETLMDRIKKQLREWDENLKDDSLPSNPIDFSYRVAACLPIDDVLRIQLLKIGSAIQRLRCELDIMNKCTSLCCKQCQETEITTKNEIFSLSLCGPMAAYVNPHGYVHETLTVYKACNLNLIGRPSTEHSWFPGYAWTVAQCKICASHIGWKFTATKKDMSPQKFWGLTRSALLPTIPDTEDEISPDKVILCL
T1 sequence (Q16531 whole entry partner): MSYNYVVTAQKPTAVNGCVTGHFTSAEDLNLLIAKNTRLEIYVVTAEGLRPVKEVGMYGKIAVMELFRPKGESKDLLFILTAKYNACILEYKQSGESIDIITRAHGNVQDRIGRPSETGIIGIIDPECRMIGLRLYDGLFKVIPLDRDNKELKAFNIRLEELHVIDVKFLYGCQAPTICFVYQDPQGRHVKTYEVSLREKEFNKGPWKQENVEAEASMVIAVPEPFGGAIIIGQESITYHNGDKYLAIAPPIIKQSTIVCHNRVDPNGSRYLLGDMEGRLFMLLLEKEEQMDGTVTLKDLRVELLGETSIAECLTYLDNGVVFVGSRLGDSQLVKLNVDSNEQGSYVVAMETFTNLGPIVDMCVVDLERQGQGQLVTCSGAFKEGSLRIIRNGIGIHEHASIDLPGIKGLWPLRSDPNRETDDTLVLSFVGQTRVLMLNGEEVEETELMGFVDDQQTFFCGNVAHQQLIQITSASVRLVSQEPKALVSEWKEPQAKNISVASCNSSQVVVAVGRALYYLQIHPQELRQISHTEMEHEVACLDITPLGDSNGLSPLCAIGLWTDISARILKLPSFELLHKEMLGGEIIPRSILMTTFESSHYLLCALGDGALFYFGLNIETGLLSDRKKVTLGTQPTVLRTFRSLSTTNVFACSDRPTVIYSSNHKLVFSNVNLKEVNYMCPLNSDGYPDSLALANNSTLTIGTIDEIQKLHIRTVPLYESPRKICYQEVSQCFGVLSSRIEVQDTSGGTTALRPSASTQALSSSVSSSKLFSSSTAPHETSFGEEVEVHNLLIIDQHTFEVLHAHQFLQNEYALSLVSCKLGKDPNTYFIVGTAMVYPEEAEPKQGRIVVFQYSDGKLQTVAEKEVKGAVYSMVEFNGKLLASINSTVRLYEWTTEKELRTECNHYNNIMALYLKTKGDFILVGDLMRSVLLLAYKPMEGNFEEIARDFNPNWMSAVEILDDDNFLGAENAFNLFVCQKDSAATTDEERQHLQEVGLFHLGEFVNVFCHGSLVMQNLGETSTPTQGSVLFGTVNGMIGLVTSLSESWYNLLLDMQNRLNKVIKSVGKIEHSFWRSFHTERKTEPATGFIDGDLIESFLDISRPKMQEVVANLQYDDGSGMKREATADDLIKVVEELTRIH
Procedure: (§1) The Prolabel system from DiscoverX was used to develop high-throughput and quantitative assays to measure changes in IKZF1, IKZF2 and GSPT1 protein levels in response to compounds. The prolabel tag was derived from the alpha fragment of beta galactosidase and has the following protein sequence: mssnslavvlqadwenpgvtqlnrlaahppfaswrnseeartdrpsqqlislnge. The complementary fragment of beta-galactosidase (from DiscoverX), is added to the prolabel tag to form an active beta galactosidase enzyme whose activity can be precisely measured. In this way, the levels of a fusion protein with the prolabel tag can be quantified in cell lysates.
(§2) Lentiviral vectors, based on the Invitrogen pLenti6.2/V5 DEST backbone, were constructed that placed the prolabel tag upstream of IKZF1, IKZF2 or GSPT1 and expressed the fusion protein from a CMV promoter.
(§3) To ensure moderate and consistent expression of the prolabel fusion proteins across all cells in the population, stable cell lines were constructed from cells expressing a single copy of the construct. Lentivirus packaged with the constructs was made using the Virapower kit from Invitrogen.
(§4) The levels of prolabel tagged fusion proteins in compound treated cell lines were measured as follows:
(§5) Day 1, Cells were diluted to 1.0×10^6 cells/ml in normal growth medium. 17.5 μL, of cells were plated in each well of a solid white 384 well plate. Plates were incubated overnight in a 37° C. tissue culture incubator.
(§6) Day 2, Serial dilutions of compounds were made in 384 well plates from 10 mM stocks. 15 μL, of DMSO was added to each well of a 384 well plate. In the first column, 15 μL of stock compound was added. The solution was mixed and 15 μL was transferred to the next column. This was repeated until 20 two-fold dilutions were prepared. 2.5 μL, of diluted compounds were transferred into 60 μL of cell culture medium in another 384 well plate, and mixed well. 2.5 μL of this mixture was added to the plated cells. The final DMSO concentration was 0.5% and the highest concentration of compound was 50 μM. Plates were incubated overnight (e.g., about 14 h, 18 h, or 24 h) in a 37° C. tissue culture incubator.
(§7) Day 3, Plates were removed from the incubator and allowed to equilibrate at rt for 30 minutes. Prolabel substrate (DiscoverX PathHunter Prolabel Detection Kit, User manual: 93-0180) was added as described by the manufacturers protocols. Plates were incubated at rt for three hours and luminescence was read using an Envision reader (Perkin Elmer) Data was analyzed and visualized using the Spotfire software package.

[2] = target: T2, IKZF2 (Homo sapiens, UniProt Q96SW2+Q9UKS7); test: Prolabel quantification of IKZF2 protein levels in 293GT cells; assay type: cell-based; conditions: Pro-label assay in 293GT cells; for IKZF2 Degradation (%): % degradation is at 10 μM; for AC50: read-out: IKZF2 Degradation AC50
T2 construct: expressed in transfected cells
T2 sequence (Q9UKS7 whole entry): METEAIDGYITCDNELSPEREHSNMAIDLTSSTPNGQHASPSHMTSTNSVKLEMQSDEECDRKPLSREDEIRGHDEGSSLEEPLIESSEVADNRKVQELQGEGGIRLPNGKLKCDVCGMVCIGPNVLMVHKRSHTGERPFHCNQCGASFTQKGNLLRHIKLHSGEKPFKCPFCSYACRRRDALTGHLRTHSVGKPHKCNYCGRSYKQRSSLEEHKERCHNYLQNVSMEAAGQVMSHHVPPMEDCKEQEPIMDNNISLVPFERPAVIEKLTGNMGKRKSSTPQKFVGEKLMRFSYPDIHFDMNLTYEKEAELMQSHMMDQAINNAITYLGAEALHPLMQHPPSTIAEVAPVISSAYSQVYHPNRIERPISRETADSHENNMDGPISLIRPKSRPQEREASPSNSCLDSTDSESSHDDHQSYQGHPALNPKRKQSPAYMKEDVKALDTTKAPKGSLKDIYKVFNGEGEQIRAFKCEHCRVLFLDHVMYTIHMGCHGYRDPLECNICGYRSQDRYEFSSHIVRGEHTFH
T2 sequence (Q96SW2 whole entry): as the sequence (Q96SW2 whole entry) above
T2 sequence (Q16531 whole entry partner): as the sequence (Q16531 whole entry partner) above
Procedure: as §1, §2, §3, §4, §5, §6, §7

## O=C1CCC(N2Cc3nc(C4CCN(Cc5ccccc5)CC4)ccc3C2=O)C(=O)N1 (stereo not drawn) [Compound I-1, 3-(2-(1-benzylpiperidin-4-yl)-5-oxo-5,7-dihydro-6H-pyrrolo[3,4-b]pyridin-6-yl)piperidine-2,6-dione]
[1]
  AC50: > 30 µM
[2]
  IKZF2 Degradation (%): 33%
  AC50: 260 nM

## O=C1CCC(N2Cc3cc(C4CCN(Cc5ccccc5)CC4)ncc3C2=O)C(=O)N1 (stereo not drawn) [Compound I-2, 3-(6-(1-benzylpiperidin-4-yl)-3-oxo-1,3-dihydro-2H-pyrrolo[3,4-c]pyridin-2-yl)piperidine-2,6-dione]
[1]
  AC50: > 30 µM
[2]
  AC50: > 30000 nM

## O=C1CCC(N2Cc3c(ccc(C4CCN(Cc5ccccc5)CC4)c3F)C2=O)C(=O)N1 (stereo not drawn) [Compound I-3, 3-(5-(1-benzylpiperidin-4-yl)-4-fluoro-1-oxoisoindolin-2-yl)piperidine-2,6-dione]
[1]
  AC50: > 30 µM
[2]
  IKZF2 Degradation (%): 72%
  AC50: 6 nM

## Cc1c(C2CCN(Cc3ccccc3)CC2)ccc2c1CN(C1CCC(=O)NC1=O)C2=O (stereo not drawn) [Compound I-5, 3-(5-(1-benzylpiperidin-4-yl)-4-methyl-1-oxoisoindolin-2-yl)piperidine-2,6-dione]
[1]
  AC50: > 30 µM
[2]
  IKZF2 Degradation (%): 59%
  AC50: 110 nM

## O=C1CCC(N2Cc3cc(C4CCN(Cc5ccncc5)CC4)c(F)cc3C2=O)C(=O)N1 (stereo not drawn) [Compound I-16, 3-(6-fluoro-1-oxo-5-(1-(pyridin-4-ylmethyl)piperidin-4-yl)isoindolin-2-yl)piperidine-2,6-dione]
[1]
  IKZF1 Degradation (%): 22%
  AC50: 7.6 µM
[2]
  IKZF2 Degradation (%): 42%
  AC50: 560 nM

## CO[C@H]1CC[C@H](CN2CCC(c3ccc4c(c3Cl)CN(C3CCC(=O)NC3=O)C4=O)CC2)CC1 (stereo partly drawn) [Compound I-17, 3-(4-chloro-5-(1-(((1r,4r)-4-methoxycyclohexyl)methyl)piperidin-4-yl)-1-oxoisoindolin-2-yl)piperidine-2,6-dione]
[1]
  IKZF1 Degradation (%): 40%
  AC50: 0.13 µM
[2]
  IKZF2 Degradation (%): 30%
  AC50: 75 nM

## COc1c(C2=CCN(Cc3ccccc3)CC2)ccc2c1CN(C1CCC(=O)NC1=O)C2=O (stereo not drawn) [Compound I-20, 3-(5-(1-benzyl-1,2,3,6-tetrahydropyridin-4-yl)-4-methoxy-1-oxoisoindolin-2-yl)piperidine-2,6-dione]
[1]
  IKZF1 Degradation (%): 40%
  AC50: 0.066 µM
[2]
  IKZF2 Degradation (%): 42%
  AC50: 200 nM

## Nc1cccc2c1C(=O)N(C1CCC(=O)NC1=O)C2=O (stereo not drawn) [Pomalidomide, 4-amino-2-(2,6-dioxopiperidin-3-yl)isoindoline-1,3-dione, reference compound]
[1]
  IKZF1 Degradation (%): 80%
